Measurements taken from patent US20240009263A1, “COMPOUNDS FOR TREATING ENVELOPED VIRUS INFECTIONS” (priority 2020, published 2024).
Where two headings read alike, the source gives them in different places. Non-standard residues stand in square brackets, D forms with d. Residues, ends and D or L forms follow the SMILES beside them. *: point of attachment. Nva = CCC[C@H](N)C(=O)O; Cbz = O=C(OCc1ccccc1)*

Key:
[1] = system: SARS-CoV-2 strain BavPat1; assay: microbe, parasite or virus in culture; type: cell-based; settings: Severe acute respiratory syndrome coronavirus 2; VeroE6-TMPRSS2+ cells, pilot study
[2] = system: SARS-CoV-2 strain BavPat1; settings: Vero-E6 cells
in vitro [3] = settings: African green monkey
in vitro [4] = settings: human
[5] = system: SARS-CoV-2 strain BavPat1; assay: microbe, parasite or virus in culture; settings: Severe acute respiratory syndrome coronavirus 2, Vero C1008, 48 h
[6] = system: SARS-CoV-2 strain BavPat1; assay: SARS-CoV-2 replication inhibition in Caco-2 cells (viral RNA RT-qPCR); settings: for SI = CC50/EC50: Caco-2 cells; for EC50 / EC90: Severe acute respiratory syndrome coronavirus 2, Caco-2, 48 h
[7] = Cytotoxicity in VeroE6 cells (CellTiter Blue); settings: African green monkey

Structure (SMILES)	EC50 [1] [nM]	EC90 [1] [nM]	SI = CC50/EC50 [2]	balance between virus inhibition and cytotoxicity (selectivity index), in words [2]	CC50 at 2 days (in vitro [3]) [nM]	CC50 at 2 days (in vitro [4]) [nM]	EC50 [5] [nM]	EC90 [5] [nM]	SI = CC50/EC50 [6]	EC50 [6] [nM]	EC90 [6] [nM]	CC50 at 2 days [7] [nM]
CC(C)C[C@H](NC(=O)OCc1ccccc1)C(=O)N[C@@H](CC(C)C)C(=O)N[C@H](C=O)Cc1ccccc1 [Compound 5] (Cbz-Leu-Leu-Phe-aldehyde)	1780	2300	>33.3	best selectivity index	> 2000	480	60	1930	5.13	90	470	–
CC(C)C[C@@H](C=O)NC(=O)[C@H](Cc1ccccc1)NC(=O)[C@H](CC(C)C)NC(=O)OCc1ccccc1 [Compound 6] (Cbz-Leu-Phe-Leu-aldehyde)	140	> 2000	12.92	best selectivity index	1680	–	310	11200	–	–	–	–
CCC[C@@H](C=O)NC(=O)[C@H](CC(C)C)NC(=O)[C@H](CC(C)C)NC(=O)OCc1ccccc1 [Compound 2] (Cbz-Leu-Leu-[Nva]-aldehyde)	–	–	>33.3	best selectivity index	> 2000	450	60	160	3.50	130	630	–
CCC(CC)COC(=O)[C@H](C)N[P@](=O)(OC[C@H]1O[C@@](C#N)(c2ccc3c(N)ncnn23)[C@H](O)[C@@H]1O)Oc1ccccc1 [Rem, Remdesivir, reference compound]	–	1660	–	–	–	–	2180	2450	–	–	–	–
CC(C)C[C@@H](C=O)NC(=O)[C@H](CC(C)C)NC(=O)[C@H](Cc1ccccc1)NC(=O)OCc1ccccc1 [Compound 4] (Cbz-Phe-Leu-Leu-aldehyde)	> 2000	> 2000	49.69	best selectivity index	6460	–	130	600	–	–	–	–
CC(C)C[C@H](NC(=O)[C@H](Cc1ccccc1)NC(=O)c1cnccn1)B(O)O [Compound 9, reference compound]	–	–	0.22	not favourable	230	–	1050	21500	–	–	–	–
CC(=O)N[C@@H](CC(C)C)C(=O)N[C@@H](CC(C)C)C(=O)N[C@H](C=O)CC(C)C [Compound 3] (Ac-Leu-Leu-Leu-aldehyde)	–	–	>45.2	best selectivity index	13600	–	< 300	1570	–	–	–	–
CC(C)C[C@@H](C=O)NC(=O)[C@H](CC(C)C)NC(=O)[C@H](CC(C)C)NC(=O)Cc1ccc(F)cc1F [Compound 8]	–	–	>3.84	advantageous balance	> 2000	–	520	1280	–	–	–	–
CC(C)C[C@@H](C=O)NC(=O)[C@H](CC(C)C)NC(=O)[C@H](CC(C)C)NC(=O)c1cnccn1 [Compound 7]	–	–	>2.94	advantageous balance	–	–	680	1930	–	–	–	> 2000
CC(C)C[C@@H](C=O)NC(=O)[C@H](CC(C)C)NC(=O)[C@H](CC(C)C)NC(=O)OCc1ccccc1 [Compound 1] (Cbz-Leu-Leu-Leu-aldehyde)	850	3300	22.8	advantageous balance	2790	230	120	500 to 1000	1.89	120	130	–
